Laboratory results from the supplement of paper PMC10307832.

Compound: COc1cc2ncn(-c3cc(OCc4ccccc4C(F)(F)F)c(C(N)=O)s3)c2cc1OC + CS(=O)(=O)N1CCN(Cc2cc3nc(-c4cccc5[nH]ncc45)nc(N4CCOCC4)c3s2)CC1 [Pictilisib] (partner 1 µM)
Assay: relative viability (nuclei count vs DMSO), 5 days (fraction); higher = more cells survive
How it was run: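 Relative viability is defined as nuclei in treated wells over nuclei in vehicle wells. Duplicate plates were run and medians reported. Lung cancer cell lines in 1536-well plates were dosed by pin tool one day after seeding, with one drug or with a fixed anchor-drug dose plus five library-drug doses (not always all listed) in √10 steps, and nuclei were counted after 5 days.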

Row | Cell Line | relative viability (first compound 0.05 µM) | relative viability (first compound 0.1581 µM) | relative viability (first compound 0.5 µM) | relative viability (first compound 1.581 µM) | relative viability (first compound 5 µM)
1 | 201T | 0.717 | 0.743 | 0.682 | 0.319 | 0.247
2 | A549 | 0.606 | 0.55 | 0.0875 | 0.0523 | 0.0706
3 | A-427 | 0.76 | 0.527 | 0.729 | 0.262 | 0.117
4 | ABC-1 | 0.645 | 0.791 | 0.634 | 0.284 | 0.229
5 | BEN | 0.653 | 0.557 | 0.471 | 0.223 | 0.233
6 | CAL-12T | 0.351 | 0.389 | 0.323 | 0.186 | 0.177
7 | COR-L23 | 0.876 | 0.9 | 0.533 | 0.0929 | 0.0905
8 | COR-L 105 | 0.475 | 0.386 | 0.267 | 0.279 | 0.259
9 | Calu-6 | 0.821 | 0.735 | 0.221 | 0.0967 | 0.102
10 | ChaGo-K-1 | 0.676 | 0.419 | 0.594 | 0.322 | 0.248
11 | EBC-1 | 0.478 | 0.383 | 0.145 | 0.134 | 0.141
12 | EKVX | 0.42 | 0.516 | 0.427 | 0.262 | 0.291
13 | EMC-BAC-2 | 0.581 | 0.46 | 0.526 | 0.352 | 0.139
14 | EPLC-272H | 0.354 | 0.202 | 0.287 | 0.173 | 0.135
15 | H3255 | 0.458 | 0.467 | 0.247 | 0.21 | 0.187
16 | HARA | 0.443 | 0.38 | 0.274 | 0.0824 | 0.0556
17 | HCC-15 | 0.69 | 0.707 | 0.549 | 0.163 | 0.125
18 | HCC-44 | 0.76 | 0.601 | 0.632 | 0.104 | 0.11
19 | HCC-78 | 0.221 | 0.188 | 0.186 | 0.206 | 0.186
20 | HCC-366 | 0.149 | 0.12 | 0.0681 | 0.0359 | 0.015
21 | HCC-827 | 0.917 | 1.13 | 0.968 | 0.77 | 0.56
22 | HOP-62 | 0.753 | 0.805 | 0.566 | 0.123 | 0.0836
23 | IA-LM | 0.46 | 0.262 | 0.0711 | 0.0659 | 0.0766
24 | LC-2-ad | 0.383 | 0.108 | 0.0797 | 0.0935 | 0.0834
25 | LCLC-97TM1 | 0.203 | 0.2 | 0.123 | 0.134 | 0.125
26 | LCLC-103H | 0.594 | 0.695 | 0.54 | 0.271 | 0.135

Row | Cell Line | relative viability (first compound 0.05 µM) | relative viability (first compound 0.1581 µM) | relative viability (first compound 0.5 µM) | relative viability (first compound 1.581 µM) | relative viability (first compound 5 µM)
27 | LK-2 | 0.548 | 0.566 | 0.307 | 0.263 | 0.306
28 | LOU-NH91 | 0.554 | 0.544 | 0.51 | 0.399 | 0.418
29 | LU99A | 0.307 | 0.342 | 0.271 | 0.159 | 0.15
30 | LXF-289 | 0.789 | 0.752 | 0.447 | 0.0857 | 0.0529
31 | NCI-H23 | 0.451 | 0.339 | 0.228 | 0.148 | 0.117
32 | NCI-H322M | 0.549 | 0.505 | 0.556 | 0.384 | 0.318
33 | NCI-H358 | 0.362 | 0.347 | 0.293 | 0.148 | 0.14
34 | NCI-H441 | 0.652 | 0.352 | 0.163 | 0.13 | 0.131
35 | NCI-H460 | 0.401 | 0.206 | 0.323 | 0.0526 | 0.183
36 | NCI-H520 | 0.29 | 0.316 | 0.345 | 0.193 | 0.172
37 | NCI-H596 | 0.393 | 0.405 | 0.371 | 0.191 | 0.178
38 | NCI-H647 | 0.441 | 0.425 | 0.413 | 0.0779 | 0.057
39 | NCI-H650 | 0.959 | 0.781 | 0.642 | 0.224 | 0.396
40 | NCI-H661 | 0.486 | 0.328 | 0.458 | 0.259 | 0.257
41 | NCI-H727 | 0.392 | 0.373 | 0.403 | 0.245 | 0.188
42 | NCI-H838 | 0.514 | 0.519 | 0.478 | 0.14 | 0.0851
43 | NCI-H1299 | 0.77 | 0.699 | 0.18 | 0.142 | 0.132
44 | NCI-H1355 | 0.499 | 0.399 | 0.385 | 0.182 | 0.151
45 | NCI-H1395 | 0.609 | 0.686 | 0.461 | 0.635 | 0.438
46 | NCI-H1437 | 0.533 | 0.392 | 0.307 | 0.0976 | 0.0782
47 | NCI-H1563 | 0.684 | 0.607 | 0.683 | 0.55 | 0.5
48 | NCI-H1650 | 0.52 | 0.615 | 0.322 | 0.156 | 0.146
49 | NCI-H1651 | 0.662 | 0.7 | 0.616 | 0.111 | 0.102
50 | NCI-H1666 | 0.404 | 0.38 | 0.332 | 0.188 | 0.193
51 | NCI-H1703 | 0.256 | 0.227 | 0.2 | 0.126 | 0.172
52 | NCI-H1734 | 0.493 | 0.48 | 0.409 | 0.206 | 0.172

Row | Cell Line | relative viability (first compound 0.05 µM) | relative viability (first compound 0.1581 µM) | relative viability (first compound 0.5 µM) | relative viability (first compound 1.581 µM) | relative viability (first compound 5 µM)
53 | NCI-H1755 | 0.457 | 0.371 | 0.355 | 0.203 | 0.169
54 | NCI-H1792 | 0.278 | 0.254 | 0.158 | 0.0865 | 0.109
55 | NCI-H1793 | 0.272 | 0.308 | 0.179 | 0.192 | 0.228
56 | NCI-H1915 | 0.988 | 0.857 | 0.799 | 0.111 | 0.0806
57 | NCI-H1944 | 0.368 | 0.363 | 0.307 | 0.206 | 0.166
58 | NCI-H1975 | 0.285 | 0.324 | 0.257 | 0.133 | 0.157
59 | NCI-H1993 |  | 0.812 | 0.73 | 0.553 | 0.588
60 | NCI-H2009 | 0.783 | 0.417 | 0.325 | 0.166 | 0.152
61 | NCI-H2023 | 0.228 | 0.287 | 0.196 | 0.12 | 0.0888
62 | NCI-H2085 | 0.47 | 0.45 | 0.463 | 0.273 | 0.273
63 | NCI-H2087 | 1.11 | 0.556 | 0.454 | 0.211 | 0.134
64 | NCI-H2126 | 0.462 | 0.517 | 0.477 | 0.254 | 0.229
65 | NCI-H2170 | 0.342 | 0.318 | 0.188 | 0.192 | 0.156
66 | NCI-H2228 | 0.331 | 0.423 | 0.237 | 0.165 | 0.303
67 | NCI-H2347 | 0.689 | 0.435 | 0.503 | 0.394 | 0.375
68 | NCI-H2405 | 0.512 | 0.265 | 0.458 | 0.366 | 0.27
69 | NCI-H3122 | 0.578 | 0.269 | 0.282 | 0.212 | 0.184
70 | PC-3 [JPC-3] | 0.728 | 0.78 | 0.611 | 0.327 | 0.26
71 | PC-14 | 0.717 | 0.694 | 0.343 | 0.0295 | 0.0382
72 | RERF-LC-KJ | 0.557 | 0.692 | 0.269 |  | 0.185
73 | SK-LU-1 | 0.568 | 0.516 | 0.423 | 0.213 | 0.178
74 | SK-MES-1 | 0.343 | 0.414 | 0.292 | 0.132 | 0.213
75 | SW 1573 | 0.529 | 0.377 | 0.367 |  | 0.176
76 | UMC-11 | 0.727 | 0.81 | 0.226 | 0.149 | 0.121
